These results are taken from patent US8501755B2, “Tetrahydropyridothienopyrimidine compounds and methods of use thereof” (Bayer Intellectual Property GmbH, priority 2006, dated 2013).

Each structure is given as a SMILES string.

Assay type in all cases: cell-based
Experiment [1] relates to H1975 cells. Nature of the experiment: In vitro tumor cell proliferation assay (Cell Titer-Glo) in H1975 cells. The conditions noted are these: NCI-H1975; H1975 human NSCLC expressing mutant HER1 (L858R,T790M); 72 hours exposure; read-out: IC50, activities in H 1975 cell lines. In a few lines:
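After 72 h compound exposure at 37° C (top 10 uM down to 64 pM, 0.1% DMSO), viability of EGFR L858R/T790M-mutant H1975 cells was read as ATP luminescence.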

Experiment [2] deals with A431 cells. Nature of the experiment: In vitro tumor cell proliferation assay (Cell Titer-Glo) in A431 cells. Particulars: Homo sapiens, A-431, 72 h, A431 human epidermoid carcinoma overexpressing HER1; 72 hours exposure; read-out: IC50, activities in A431 cell lines. In a few lines:
(§1)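 Viability after 72 h drug exposure at 37 °C was read as CellTiter-Glo ATP luminescence, giving IC50. Cells (2.5×10^3/well, RPMI + 10% FBS) were compound-treated one day post-seeding, 0.1% DMSO final: A431 overexpresses HER1, N87 overexpresses HER2 and HER1.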
(In ATP-based viability assays light output follows the ATP content of the culture.)

In experiment [3] the test system is N87. The experiment can be described thus: In vitro tumor cell proliferation assay (Cell Titer-Glo) in N87 cells. Particulars: N87 human gastric carcinoma overexpressing HER2 and HER1; 72 hours exposure; read-out: IC50, activities in N87 cell lines. In a few lines: as §1

The IC50 is the midpoint of a concentration-inhibition curve. Take `CN(C/C=C/C(=O)N1CCc2c(sc3ncnc(Nc4ccc5c(ccn5Cc5cccc(F)c5)c4)c23)C1)C(C)(C)C` [Example 125, 7-{(2E)-4-[tert-butyl(methyl)amino]but-2-enoyl}-N-[1-(3-fluorobenzyl)-1H-indol-5-yl]-5,6,7,8-tetrahydropyrido [4′,3′:4,5]thieno[2,3-d]pyrimidin-4-amine]: the IC50 in experiment [1] is 200 to 1000 nM; in experiment [2], 200 to 1000 nM; in experiment [3] it was less than 200 nM.
Consider `CCN(CC)C/C=C/C(=O)N1CCc2c(sc3ncnc(Nc4ccc(OCc5ccccn5)c(Cl)c4)c23)C1` [Example 2, N-[3-chloro-4-(pyridin-2-ylmethoxy)phenyl]-7-[(2E)-4-(diethylamino)but-2-enoyl]-5,6,7,8-tetrahydropyrido[4′,3′:4,5]thieno[2,3-d]pyrimidin-4-amine], for which the IC50 in experiment [1] is 1000 to 10000 nM; in experiment [2] it was less than 200 nM; in experiment [3], less than 200 nM.
`CCN(CC)C/C=C/C(=O)N1CCc2c(sc3ncnc(Nc4ccc5c(ccn5Cc5ccccn5)c4)c23)C1` [Example 121, 7-[(2E)-4-(diethylamino)but-2-enoyl]-N-[1-(pyridin-2-ylmethyl)-1H-indol-5-yl]-5,6,7,8-tetrahydropyrido [4′,3′:4,5]thieno[2,3-d]pyrimidin-4-amine]: the IC50 in experiment [1] is 200 to 1000 nM; in experiment [2], 200 to 1000 nM; in experiment [3] it was less than 200 nM.
As to `CCN(C)C/C=C/C(=O)N1CCc2c(sc3ncnc(Nc4ccc5c(ccn5Cc5ccccn5)c4)c23)C1` [Example 127, 7-{(2E)-4-[ethyl(methyl)amino]but-2-enoyl}-N-[l-(pyridin-ylmethyl)1H-indol-5-yl]-5,6,7,8-tetrahydropyrido [4′,3′:4,5]thieno[2,3-d]pyrimidin-4-amine], the IC50 in experiment [1] was 200 to 1000 nM; in experiment [2] it was 200 to 1000 nM; in experiment [3], less than 200 nM.
Take `O=C(C#CCN1CCOCC1)N1CCc2c(sc3ncnc(Nc4ccc(OCc5ccccn5)c(Cl)c4)c23)C1` [Example 136, N-[3-chloro-4-(pyridin-2-ylmethoxy)phenyl]-7-(4-morpholin-4-ylbut-2-ynoyl)-5,6,7,8-tetrahydropyrido [4′,3′:4,5]thieno[2,3-d]pyrimidin-4-amine]: the values for the half-maximal inhibitory concentration (IC50) in experiment [1], in experiment [2] and in experiment [3] were 1000 to 10000 nM, 1000 to 10000 nM and less than 200 nM, respectively.
For the compound `O=C(/C=C/CN1CCCC1)N1CCc2c(sc3ncnc(Nc4ccc(F)c(Cl)c4)c23)C1` [Example 21, N-(3-chloro-4-fluorophenyl)-7-[(2E)-4-pyrrolidin-1-ylbut-2-enoyl]-5,6,7,8-tetrahydropyrido [4′,3′:4,5]thieno[2,3-d]pyrimidin-4-amine], the IC50 in experiment [1], in experiment [2] and in experiment [3] was less than 200 nM throughout.
As to `CN(C)C/C=C/C(=O)N1CCc2c(sc3ncnc(Nc4cccc(Cl)c4)c23)C1` [Example 164, N-(3-chlorophenyl)-7-[(2E)-4-(dimethylamino)but-2-enoyl]-5,6,7,8-tetrahydropyrido [4′,3′:4,5]thieno[2,3-d]pyrimidin-4-amine], the IC50 in experiment [1] is 200 to 1000 nM; in experiment [2] it was 200 to 1000 nM; in experiment [3], less than 200 nM.
As to `O=C(/C=C/CN1CCCC(CO)C1)N1CCc2c(sc3ncnc(Nc4ccc(F)c(Cl)c4)c23)C1` (stereo not drawn) [Example 69, {1-[(2E)-4-{4-[(3-chloro-4-fluorophenyl)amino]-5,8-dihydropyrido [4′,3′:4,5]thieno[2,3-d]pyrimidin-7(6H)-yl}-4-oxobut-2-en-1-yl]piperidin-3-yl}methanol], the IC50 in experiment [1] is 200 to 1000 nM; in experiment [2], 200 to 1000 nM; in experiment [3], less than 200 nM.
Turning to `Cc1cccc(COc2ccc(Nc3ncnc4sc5c(c34)CCN(C(=O)/C=C/CN3CCCCC3)C5)cc2Cl)n1` [Example 75, N-{3-chloro-4-[(6-methylpyridin-2-yl)methoxy]phenyl}-7-[(2E)-4-piperidin-1-ylbut-2-enoyl]-5,6,7,8-tetrahydropyrido [4′,3′:4,5]thieno[2,3-d]pyrimidin-4-amine], the figures for the IC50 in experiment [1], in experiment [2] and in experiment [3] were 200 to 1000 nM, 1000 to 10000 nM and less than 200 nM, respectively.
With `C=C(CN1CCOCC1)C(=O)N1CCc2c(sc3ncnc(Nc4ccc(OCc5cccc(F)c5)c(Cl)c4)c23)C1` [Example 146, N-{3-chloro-4-[(3-fluorobenzyl)oxy]phenyl}-7-[2-(morpholin-4-ylmethyl)acryloyl]-5,6,7,8-tetrahydropyrido [4′,3′:4,5]thieno[2,3-d]pyrimidin-4-amine], the IC50 in experiment [1] is 1000 to 10000 nM; in experiment [2], 1000 to 10000 nM; in experiment [3], less than 200 nM.
In the case of `O=C(/C=C/CN1CCCCC1)N1CCc2c(sc3ncnc(Nc4ccc(F)c(Cl)c4)c23)C1` [Example 12, N-(3-chloro-4-fluorophenyl)-7-[(2E)-4-piperidin-1-ylbut-2-enoyl]-5,6,7,8-tetrahydropyrido[4′,3′:4,5]thieno[2,3-d]pyrimidin-4-amine], the IC50 is 200 to 1000 nM in experiment [1], less than 200 nM in experiment [2] and less than 200 nM in experiment [3].
As for `Cc1ccc(F)cc1Nc1ncnc2sc3c(c12)CCN(C(=O)/C=C/CN(C)C)C3` [Example 166, 7-[(2E)-4-(dimethylamino)but-2-enoyl]-N-(5-fluoro-2-methylphenyl)-5,6,7,8-tetrahydropyrido [4′,3′:4,5]thieno[2,3-d]pyrimidin-4-amine], the figures for the half-inhibitory concentration (IC50) in experiment [1], in experiment [2] and in experiment [3] were 1000 to 10000 nM, 1000 to 10000 nM and 200 to 5000 nM, respectively.
Regarding `CN(C/C=C/C(=O)N1CCc2c(sc3ncnc(Nc4ccc(Cl)c(Cl)c4)c23)C1)C(C)(C)C` [Example 199, 7-{(2E)-4-[tert-butyl(methyl)amino]but-2-enoyl}-N-(3,4-dichlorophenyl)-5,6,7,8-tetrahydropyrido [4′,3′:4,5]thieno[2,3-d]pyrimidin-4-amine], the IC50 in experiment [1], in experiment [2] and in experiment [3] was less than 200 nM in each case.
